Assay results taken from ChEMBL document CHEMBL3525914, “Induction of hepatic multidrug resistance-associated protein 3 by ethynylestradiol is independent of cholestasis and mediated by estrogen receptor” (Drug Metab Dispos, 2013).

Experiments:
[1] = system: Rattus norvegicus; experiment: Toxicity in Wistar rat assessed as serum ALP activity at 5 mg/kg, sc administered as single dose after 5 hrs (reference value: 256 +/- 10 U/l); format: organism-based; parameters: dose 5 mg/kg, route subcutaneous; settings: in vivo
[2] = system: Rattus norvegicus; experiment: Toxicity in Wistar rat assessed as increase in Mrp3 mRNA level at 5 mg/kg, sc administered as single dose after 5 hrs by qRT-PCR analysis; format: organism-based; parameters: dose 5 mg/kg, route subcutaneous; settings: in vivo
[3] = system: Rattus norvegicus; experiment: Toxicity in Wistar rat assessed as biliary excretion of total bile salts per gm of liver at 5 mg/kg, sc administered as single dose after 5 hrs (reference value: 50 +/- 6 nmol/min); format: organism-based; parameters: dose 5 mg/kg, route subcutaneous; settings: in vivo
[4] = system: Hepatocyte; experiment: Effect on Mrp2 mRNA level in Wistar rat hepatocytes at 1 to 10 uM after 5 hrs by qRT-PCR analysis; format: ADME, cell-based
[5] = system: Rattus norvegicus; experiment: Toxicity in Wistar rat assessed as biliary excretion of total glutathione per gm of liver at 5 mg/kg, sc administered as single dose after 5 hrs (reference value: 2 +/- 0.79 nmol/min); format: organism-based; parameters: dose 5 mg/kg, route subcutaneous; settings: in vivo
[6] = system: Hepatocyte; experiment: Effect on total ER level in Wistar rat hepatocytes nuclear extract at 10 uM after 30 to 120 mins by Western blot analysis; format: ADME, cell-based
[7] = system: Rattus norvegicus; experiment: Toxicity in Wistar rat assessed as bile flow per gm of liver at 5 mg/kg, sc administered as single dose after 5 hrs (reference value: 1.40 +/- 0.14 ul/min); format: organism-based; parameters: dose 5 mg/kg, route subcutaneous; settings: in vivo

For C#C[C@]1(O)CC[C@H]2[C@@H]3CCc4cc(O)ccc4[C@H]3CC[C@@]21C [ETHINYL ESTRADIOL], the Activity [1] was 269 U/L, the Activity [2] was 330% and the Activity [3] was 47 nmol/min. The Activity [4] was “Not Active”, the Activity [5] was 1.8 nmol/min and the Activity [6] was “Non-toxic”. It also gave an Activity [7] of 1.35 µL/min.
